# Entries after “also recorded” stand apart in the source; their conditions may differ.
# What was measured:
# bactéries = experiment: Toxicity of the substrates towards the bacteria in the agar test; assay type: cell-based; settings: substrate in agar 10 to 300 µg/ml, high concentration = 300 µg/ml
# Procedure: (§1) Tous les substrats (composés 10c, 10d et […]) sont incorporés à la gélose à différentes concentrations couvrant une gamme de 10 à 300µg/ml.
# (§2) Les composés sont préalablement dissous dans le DMSO et dilués dans de l'eau bi-distillée pour constituer des solutions mères à 800µg/ml, qui peuvent être conservées au moins une semaine à +4°C. Les solutions mères sont diluées ensuite pour délivrer les paliers de concentrations définis à 10, 50, 100, 200 et 300µg/ml.
# (§3) Ces substrats sont ajoutés à la gélose à 45°C (une température de 85°C fut tolérée par les substrats), préalablement tamponnée à pH=7 et stérilisée par autoclavage. Les boîtes de gélose sont ensuite ensemencées d'une suspension de colonies, stérilement, à l'öse de platine par stries transversales et selon la méthode des quadrants. L'incubation est poursuivie durant une nuit à 37°C.
# (§4) Pour chaque concentration on réalise un banc sans colonies et pour chaque type bactérien, un contrôle de culture sans substrat, de sorte que l'on ne puisse observer que les effets de la présence simultanée des colonies et du substrat incorporé à la gélose.
# [1] = Diffusion of the released dye in the agar; assay type: physicochemical; settings: in the agar (gélose)
# Procedure: as §1, §3
# La révélation des bactéries Gram(-), rendues fluorescentes par le fluorophore S107, S108 ou S109 libéré est réalisée sous lampe UV à une longueur d'onde d'excitation de 365nm, compatible avec les dispositifs commercialisés. […]
# Les colorants ne diffusent pas dans la gélose, de sorte que la fluorescence n'est émise que par les colonies bactériennes au site de leur croissance. Egalement, les réactions positives (fluorescence claire, lumineuse intense, des colonies Gram négatives sur un fond translucide, estompé bleu/vert pâle, fluorescence d'intensité plus faible pour les bactéries Gram positives) s'observent dès les concentrations faibles à 10µg/ml, ce qui confirme l'utilité de la nature hydrophobe des substrats, de l'absence de diffusion qui en découle et donc de l'efficacité des substrats préparés.
# Escherichia coli = experiment: Agar test with incorporated fluorogenic substrates (L-alanine aminoaryl peptidase activity), fluorescence of colonies; assay type: cell-based; settings: Gram -, substrate in agar 10 to 300 µg/ml, pH 7, overnight at 37°C, UV 365 nm
# Text: (§5) Cette différenciation fait appel à une méthode spécifique de discrimination optique des bactéries à coloration de Gram(+) ou Gram(-), qui est réalisée par l'utilisation de substrats fluorogénes de la L-alanine amino arylpeptidase, activité enzymatique retrouvée principalement dans la paroi des bactéries à coloration de Gram(-), comme il est décrit par Cerny G dans European Journal of Applied Microbiology, 1976, 3, p. 223-225, et 1978 5, p. 113-122.
# (§6) Dans cet exemple, on utilise cette méthode de détection des activités enzymatiques bactériennes de la L-alanine aminoaryl peptidase avec les substrats fluorogènes S107, S108 et S109 utilisant les composés 10e, 10c et 10d des exemples 15, 13 et 14. Ces substrats sont incorporés à la gélose selon la méthode énoncée par Manafi & Kneifel dans Journal of Applied Bacteriology 1990, 69, p. 822-827.
# as §1, §2, §3, §4
# (§7) La révélation des bactéries Gram(-), rendues fluorescentes par le fluorophore S107, S108 ou S109 libéré est réalisée sous lampe UV à une longueur d'onde d'excitation de 365nm, compatible avec les dispositifs commercialisés. L'émission fluorescente impressionne un papier film 35mm Kodak® Ektar® 1000/30° pour un temps d'exposition au 1/60ème de seconde-process C-41.
# Enterococcus faecalis = experiment: as above; assay type: cell-based; settings: Gram +, substrate in agar 10 to 300 µg/ml, pH 7, overnight at 37°C, UV 365 nm
# Text: as §5, §6, §1, §2, §3, §4, §7
# [2] = system: bactéries Gram(+) et Gram(-); experiment: Differentiation of Gram(+) and Gram(-) bacteria with fluorogenic substrates incorporated in agar; assay type: cell-based; settings: in agreement with Gram staining
# Text: Exemple 22. Cet exemple illustre l'utilisation des dérivés de coumarines des exemples 13, 14 et 15 pour La différenciation des bactéries Gram(+) et Gram(-)par incorporation de ces dérivés de coumarines et révélation des colonies fluorescentes.
# as §5, §6
# Tous les substrats (composés 10c, 10d et […]) sont incorporés à la gélose à différentes concentrations couvrant une gamme de 10 à 300µg/ml. […]
Structure (SMILES),Toxicité (bactéries),Diffusion [1],Test gélose aux substrats (fluorescence) (Escherichia coli),Test gélose aux substrats (fluorescence) (Enterococcus faecalis),discrimination des bactéries Gram négatives des bactéries Gram positives [2]
CCCCCCCCCc1cc(=O)oc2cc(NC(=O)[C@H](C)N)ccc12 [S107],faible; also recorded: non toxiques; also recorded: Toxicité partielle à forte concentration,non diffusibles; also recorded: Diffusion nulle,Fluorescence moyenne,Fluorescence très faible,
CCCCCCc1cc(=O)oc2cc(NC(=O)[C@H](C)N)ccc12 [S108],non toxiques; also recorded: Toxicité nulle,non diffusibles; also recorded: Diffusion nulle,Fluorescence très importante,Fluorescence faible,très efficaces

# From patent EP0693064B1, “HYDROPHOBIC AMINOCOUMARIN DERIVATIVES AND THEIR USE AS PROTEOLYTIC ENZYME SUBSTRATES OR IN THE PREPARATION OF SUCH SUBSTRATES” (priority 1993, dated 1994)
